We go through six compounds from US11400091B2, “AXL kinase inhibitors and use of the same” (Sumitomo Pharma Oncology, Inc., priority 2018, dated 2022).

Counter-ions that a name gives are not always drawn.

Data set [1] is described as follows: Dynamic Vapor Sorption (DVS). It counts as physicochemical. As to conditions: 25° C.; for water uptake at 80% RH: DVS; for FC (form change) after DVS: up to 80% RH. Here is the method:
The Dynamic Vapour Sorption studies were performed using a Surface Measurement Systems Ltd. DVS-1 No Video, equipment #2126. The sample is loaded into balance pan, typically 20-30 mg, and equilibrated at 0% RH. […] After completion of the sorption cycle, the sample was dried using the same method. The software used for data collection is DVSWin v3.01 No Video. Data analysis is performed using DVS Standard Analysis Suite v6.3.0 (Standard).

Data set [2] in a line: Single dose toxicity study. It counts as in vivo. As to conditions: single oral 150 mg/kg (free base equivalent); by the end of the recovery period. Here is the method:
The FB dose levels evaluated were 20, 50, and 150 mg/kg. The test articles were formulated with 1% Tween 80/5% TPGS/Sterile Water for Injection (v/v/v) and the study designed as indicated in Table 15 below:
Endpoints in the study consisted of mortality checks, clinical observations, body weight measurements and toxicokinetics. Following a 7-day post-dose observation period, animals were euthanized, necropsied and macroscopic observations recorded.

Data set [3] can be described thus: Kinetic solubility in bio-relevant buffers. It counts as physicochemical. As to conditions: for solubility at 24 h: 37 °C, thermodynamic from solid; for solubility kinetic: bio-relevant buffers (FaSSIF, fassgf or other biorelevant, thermodynamic from solid), FeSSIF and SGF, read-out: kinetic solubility in all biorelevant buffers; for solubility kinetic / Solubility: 37° C.; for Solubility: di-tartrate salt.

The next data set can be described thus: pH solubility. It is filed as physicochemical. Particulars: for solubility at 24 h: 37 °C, thermodynamic from solid; for FC (form change) of residual solid / Solubility: 24 hours; for Solubility: 37° C.
Data set [4] is described as follows: Stability studies of crystalline forms (HPLC). It counts as physicochemical.
A short description of data set [5]: Moisture sorption isotherm of crystalline forms. It counts as physicochemical.
A short description of data set [6]: Solid state stability at 40° C./75% RH. It is filed as physicochemical. Particulars: for Form Change at 3 weeks / HPLC Purity at 3 weeks (area %): 3 weeks under 40° C./75% RH; for Initial HPLC Purity (area %): before storage. The procedure:
Agilent 1260 HPLC was utilized and detailed chromatographic conditions for purity and solubility measurement are listed in Table 13 below.
The table below summarizes the characterization and solid state stability results observed for FB and Forms A, B, and D. Samples were prepared and data was obtained according to the procedures and processes listed above unless otherwise specified. More procedures, processes, and results are listed below in Table 14.

A short description of data set [7]: 7-day repeat dose toxicity and toxicokinetics. It is filed as in vivo, CD-1 mice. Particulars: high dose level (80 mg/kg/day). From the text: The test articles were formulated with 1% Tween 80/5% TPGS/Sterile Water for Injection (v/v/v) and the study designed as indicated in Table 16 below:
Endpoints during the study consisted of clinical observations, body weight, and toxicokinetics. Animals euthanized due to excessive body weight loss in the toxicology-designated groups were euthanized, necropsied, and macroscopic observations recorded.

The subject of a further data set is H1650 NSCLC cell line. In words: H1650 cell viability (CellTiter-Glo). Particulars: Homo sapiens, NCI-H1650. It is filed as cell-based. (In general: Cellular ATP, detected with luciferase, serves as a proxy for viable cell number.)
The test system of another data set is H1650. In words: H1650 NSCLC xenograft. It is filed as in vivo, athymic nude mice. Particulars: 21-day regimen; tartrate salt 40 mpk qd; osimertinib 20 mpk qd. The procedure: H1650 cells were injected subcutaneously into the hind flank of athymic nude mice at 1×10^7 cells/mouse. Once tumor volumes exceeded 100 mm^3, mice were randomized into study arms.
To assess the combination in vivo, the H1650 xenograft model for NSCFC was utilized. […] Slug and E-cadherin mRNA expression was assessed by standard qPCR technique. […] Slug and E-cadherin protein expression was assessed by standard immunoblotting technique.
(§1) Tumor volumes and bodyweights were assessed twice weekly.
as §1

A further data set has as its system ovarian cell lines. Put plainly: Cisplatin (CDDP) sensitivity of ovarian cell lines. It counts as cell-based.
Data set [8] deals with CYP26 mRNA in MV4-11 leukemia cells. Put plainly: CYP26 mRNA expression (RT-PCR). As to conditions: 1 μM RA; 6 hours. It counts as cell-based.
Another data set has as its system ES-2 cells. Put plainly: Scratch assay, migration of ovarian tumor cells. It is filed as cell-based. As to conditions: 6 hours pre-treatment; images 18 hours post-scratching; BMS-777607 up to 10 μM.

In general, mortality refers to the share of the test organisms that died. In general, solubility refers to the concentration that dissolves in the medium under given conditions. For orientation: solubility (kinetic) means the concentration staying in solution when a stock, usually in DMSO, is diluted into the medium. `CN1CCN(Cc2ccc(Nc3ncc(Cl)c(Nc4ccccc4S(=O)(=O)N(C)C)n3)cc2)CC1.O=C(O)C(O)C(O)C(=O)O` [Form D, 2-((5-chloro-2-((4-((4-methylpiperazin-1-yl)methyl)phenyl)amino)pyrimidin-4-yl)amino)-N,N-dimethylbenzenesulfonamide mono-tartrate salt]: the “water uptake at 80% RH” value in data set [1] (mono-tartrate salt) was found to be 5.2%. Further, the “FC (form change) after DVS” value in data set [1] is given as “Yes”. Further, the figures for the mortality in data set [2] and in [7] were 100% and “one mouse died”, respectively. Moreover, the solubility at 24 h in data set [3] (FaSSIF, 24 hours) was 3900 µg/mL; in data set [3] (FeSSIF, 24 hours) it was 4600 µg/mL; in data set [3] (SGF, simulated gastric fluid, 24 hours), more than 11000 µg/mL; in the data set “pH solubility” (pH 2.0 buffer, pH 2, aqueous buffer) it was more than 6800 µg/mL; in the data set “pH solubility” (pH 4.0 buffer, pH 4, aqueous buffer) it was 230 µg/mL; in the data set “pH solubility” (pH 6.0 buffer, pH 6, aqueous buffer), 1900 µg/mL. Besides, the solubility at 24 h in the data set “pH solubility” (pH 8.0 buffer, pH 8, aqueous buffer) came out at 5 µg/mL; in the data set “pH solubility” (pH 10.0 buffer, pH 10, aqueous buffer), 53 µg/mL. Also, the “FC (form change) of residual solid” value in data set [3] (FaSSIF, 24 hours) is “Yes”; in “pH solubility” (pH 4.0), “Yes”; in the data set “pH solubility” (pH 6.0), “Yes”; in the data set “pH solubility” (pH 8.0), “Yes”; in “pH solubility” (pH 10.0), “Yes”. Also, the kinetic solubility in [3] (FaSSIF) was more than 5000 µg/mL. The “Stability Results” value was found to be 98.2% in data set [4] (40° C.); 98.4% in [4] (40° C./75% RH); 98.2% in [4] (60° C.); 98.2% in data set [4] (60° C./75% RH); 98.4% in data set [4] (Initial). Moreover, the “Stability by HPLC” value is on record as “Stable” in data set [4] (listed as D, mono-tartrate salt) and “No significant changes” in data set [4] (mono-tartrate salt). For the same compound, in [5], the Moisture sorption isotherm entry was “hygroscopic”. Besides, the “crystal form by XRPD after the moisture absorption/desorption cycle” value in [5] was “transformed to the other forms”. For the same compound, the “Form Change at 3 weeks” value in data set [6] is on record as “No”. In addition, the “HPLC Purity at 3 weeks (area %)” value in data set [6] is recorded as 98.3 area %. Moreover, the “Initial HPLC Purity (area %)” value in [6] is given as 98.8 area %.

In general, EC50 refers to the concentration needed to bring the measured effect to its halfway point. The low end stands for an effect from little substance, the high end for a need for much substance. In general, IC50 refers to the concentration at which inhibition is half-maximal. High values mean lower potency, low ones higher potency. `C=CC(=O)Nc1cc(Nc2nccc(-c3cn(C)c4ccccc34)n2)c(OC)cc1N(C)CCN(C)C` [osimertinib]: the EC50 with H1650 NSCLC cell line was determined as 2200 nM. In the data set on H1650 NSCLC cell line (single agent, 72 hours), the midpoint of inhibition, the IC50, lay at 2200 nM. Further, the “tumor growth inhibition (% TGI), single agent” value with H1650 is recorded as 121%.

For `[NH2][Pt]([NH2])([Cl])[Cl]` [CDDP, cisplatin], the IC50 is less than 1000 nM with ovarian cell lines (PA-1, A2780, OVISE, and OVTOKO (CDDP sensitive)); more than 2500 nM in the data set on ovarian cell lines (other cell lines (CDDP resistant)).

As to Retinyl Acetate [RA], in [8], the “induction in mRNA expression levels of CYP26” value is listed as approximately 4.3 fold.

As a reminder, the Solubility is the concentration that dissolves in the medium under given conditions. Consider `CN1CCN(Cc2ccc(Nc3ncc(Cl)c(Nc4ccccc4S(=O)(=O)N(C)C)n3)cc2)CC1` [Form A, 2-((5-chloro-2-((4-((4-methylpiperazin-1-yl)methyl)phenyl)amino)pyrimidin-4-yl)amino)-N,N-dimethylbenzenesulfonamide di-tartrate salt], for which, in [1] (di-tartrate salt), the “water uptake at 80% RH” value is 4.6%. For the same compound, the “FC (form change) after DVS” value in data set [1] was “No”. Further, the Solubility in data set [3] (FaSSIF, 24 hours) is recorded as >14.8/NA mg/mL; in [3] (FeSSIF, 24 hours), 5.2/NA* mg/mL; in data set [3] (SGF, 24 hours), >17.4/NA mg/mL; in “pH solubility” (pH 2.0 buffer, di-tartrate salt), >6.7/NA mg/mL; in the data set “pH solubility” (pH 4.0 buffer, di-tartrate salt), 0.45 mg/mL; in the data set “pH solubility” (pH 6.0 buffer, di-tartrate salt) it was 3.8 mg/mL. Also, the Solubility is 0.020 mg/mL in “pH solubility” (pH 8.0 buffer, di-tartrate salt) and 0.0098 mg/mL in “pH solubility” (pH 10.0 buffer, di-tartrate salt). Also, the solubility (kinetic) in data set [3] (FaSSIF) is more than 5000 µg/mL. Besides, the “FC (form change) of residual solid” value in “pH solubility” (pH 4.0) was “Yes”; in the data set “pH solubility” (pH 6.0, di-tartrate salt), “Yes”; in the data set “pH solubility” (pH 8.0, di-tartrate salt), “Yes”; in “pH solubility” (pH 10.0, di-tartrate salt), “Yes”. Besides, the “Stability Results” value in data set [4] (40° C.), in [4] (40° C./75% RH), in [4] (60° C.), in data set [4] (60° C./75% RH) and in data set [4] (Initial) was 99.3% throughout. For the same compound, the “Stability by HPLC” value is “No significant changes” in [4] (di-tartrate salt) and “Stable” in data set [4] (listed as A, di-tartrate salt). The Moisture sorption isotherm result in [5] was “hygroscopic”. Also, in [5], the “crystal form by XRPD after the moisture absorption/desorption cycle” value is recorded as “maintained”. Also, in data set [6] (di-tartrate salt), the “Form Change at 3 weeks” value is “No”. Moreover, the “HPLC Purity at 3 weeks (area %)” value in data set [6] (di-tartrate salt) was determined as 99.7 area %. In data set [6] (di-tartrate salt), the “Initial HPLC Purity (area %)” value is on record as 99.6 area %.

With `CCOc1ccn(-c2ccc(F)cc2)c(=O)c1C(=O)Nc1ccc(Oc2ccnc(N)c2Cl)c(F)c1` [BMS-777607], the “migration of ES-2 cells” value with ES-2 cells is on record as “did not inhibit migration”.
